From patent US12565474B2, “Discovery, total synthesis, and bioactivity of doscadenamides” (priority 2019, dated 2026)
“Also recorded” adds a separate entry of the source.

Columns and labels:
[1] = tested on: MDA-MB-231 cells; assay: MDA-MB-231 cell viability (MTT) with TRAIL, synergy evaluation; conditions: for cell viability after pretreatment and TRAIL co-treatment: 3 h pretreatment (5 μM, 2 μM); for cell viability after pretreatment and TRAIL co-treatment / synergistic effect with TRAIL / sensitization (Bliss independence): then TRAIL 20 ng/mL for 24 h; for synergistic effect with TRAIL / sensitization (Bliss independence): 3 h pretreatment; for cytotoxicity compared to doscadenamide A (1a): MDA-MB-231
Experimental: MDA-MB-231 cell viability after 3 h pretreatment with DMSO (solvent control), C12 as well as doscadenamide A (1a) and its structural analogs, B) 5 μM and C) 2 μM followed by combined TRAIL (20 ng/mL) treatment for 24 h. […] MDA-MB-231 cells were treated with doscadenamide A (1a) and its structural analogs for 3 h, followed by treatment with TRAIL (20 ng/mL) for 24 h, C12 was included as positive control. “A Bliss independence” is the difference between observed growth inhibition and Bliss expectation. Values greater than zero represent a synergistic response, represented as red in the figure. Bliss expectation is C=(A+B)−(A×B), where A and B are the growth inhibition fractions of two compounds at a given dose. Cell viability was quantified using MTT assay.
MDA-MB-231 cells were pretreated with C12, doscadenamides or solvent control for 3 h and then stimulated with TRAIL for 24 h (FIGS. 20B and 20C). We measured cell viability and calculated the A Bliss independence of each compound with TRAIL.

[2] = tested on: pTIM5319 (lacks the AHL-binding site LasR); assay: Related reporter pTIM5319 lacking a functional AHL-binding domain; assay type: cell-based; conditions: E. coli, 37° C., 6 h
Experimental: (§1) FIG. 16. depicts activating activity of doscadenamide A (1a) in related reporter pTIM5319, which lacks a functional AHL-binding domain. The bacterial cultures were treated with 1a in a dose-response manner and solvent control at 37° C. for 6 h before fluorescence was measured. Results are expressed as fold activation compared to solvent control. Data are presented as mean±SD, **P<0.01, ****P<0.0001, compared to solvent control using one-way ANOVA (n=3).
(§2) Lett. 1998, 163 (2), 185-192]. […] 2011, 7 (4), 1205-1216]. To validate the activating activity of 1a, its effect on wild-type P. aeruginosa was tested. […] For comparison, the other three diastereomers 1b, 1c and 1d were also included in the test. Such superagonists are expected to artificially regulate virulence factor production such as pyocyanin and activate QS at lower bacterial cell populations, thus to stimulate the host immune system to clear the infection when fewer bacterial cells are present [Galloway, W.; Hodgkinson, J.; Bovvden, S.; Welch, M.; Spring, D., Trends Microbiol. 2012, 20 (9), 449-458].
Doscadenamide A (1a) activates QS, which was established using the 3-oxo-C12-HSL-responsive reporter plasmid pSB1075, a plasmid encoding LasR (the C12 HSL receptor in Pseudomonas aeruginosa) and containing a light-producing luxCDABE cassette expressed in Escherichia coli. […]

[3] = tested on: wild-type P. aeruginosa; assay: Pyocyanin production in wild-type P. aeruginosa; assay type: cell-based, Pseudomonas aeruginosa; conditions: 10 PM, 6 h shaking at 37° C.
Experimental: Data are presented as mean±SD, **P<0.01, ****P<0.0001, compared to solvent control using one-way ANOVA (n=3).
as §2

[4] = target: T1, LasR (Pseudomonas aeruginosa, UniProt P25084); assay: Quorum sensing reporter assay, pSB1075 (lasR-luxCDABE) expressed in E. coli; assay type: cell-based; set-up: expressed in transfected cells; host or cells: Escherichia coli carrying plasmid pSB1075; conditions: 37° C., 6 h, dose-response, vs solvent control
T1 sequence (P25084 whole entry, the tested form may be a part): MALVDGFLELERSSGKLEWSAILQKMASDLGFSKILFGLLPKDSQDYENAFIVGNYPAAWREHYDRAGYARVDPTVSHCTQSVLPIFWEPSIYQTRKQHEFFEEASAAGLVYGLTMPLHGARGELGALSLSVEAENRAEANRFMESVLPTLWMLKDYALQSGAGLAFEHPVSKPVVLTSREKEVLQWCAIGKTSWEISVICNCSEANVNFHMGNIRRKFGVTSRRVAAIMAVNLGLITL
Experimental: as §1, with “15.” for “16.”, “pSB1075, the lasR-luxCDABE” for “related”, “constructs expressed in E. coli.” for “pTIM5319, which lacks a functional AHL-binding domain.”
as §2, with “449-458]. […]” for “449-458].”
Doscadenamide A (1a) in a dose-response manner and EtOH control were added to the corresponding wells in a 96-well plate and the solvent was allowed to evaporate. […] The plate was incubated at 37° C. for 6 h before the measurement of luminescence.

[5] = tested on: P. aeruginosa mutant PAO-JP1; assay: Pyocyanin quantification in P. aeruginosa strain PAO-JP1; assay type: cell-based, Pseudomonas aeruginosa; conditions: PAO-JP1, 6 h
Experimental: To follow up our previous study regarding the QS modulatory activity of doscadenamide A (1a) on wild-type P. aeruginosa and extend reporter gene assay studies, we examined the QS activation of different doscadenamides using a QS system deficient strain, PAO-JP1. PAO-JP1 is a P. aeruginosa mutant with a lasl deletion that cannot produce C12. […]
[…] The culture was then spun down for 10 min at the maximum speed, and the supernatant was collected and filtered using […] Eppendorf filters. 500 μL of the sterile supernatant were added to 500 μL CHCl3 in an Eppendorf tube. Tube shaking allowed for the extraction of pyocyanin in the CHCl3 layer. This layer was then added to 150 μL of 0.2 N HCl in another Eppendorf tube. After shaking, the aqueous layer and the organic layer were separated. 100 μL of the aqueous layer were transferred to a clear bottomed 384-well plate and the absorbance was measured at […] to quantify the pyocyanin production. Data was analyzed using GraphPad Prism 5 software.

[6] = tested on: V. harveyi BB120 strain; assay: Bioluminescence modulation in V. harveyi; assay type: cell-based, Vibrio harveyi; conditions: for QS activation (bioluminescence, ΔLUM normalized by OD600): concentration range 10-200 PM
Experimental: FIGS. 19A-C depict QS activity in different systems. FIG. 19A is a graph showing activity of doscadenamide A (1a) in E. coli reporter gene assay using pSB1075 (wild-type) and point mutants (Y56F, W60F and D73N). […] C12 was used as the positive control. […] AI-1 is a reported quorum sensing autoinducer and was used as the positive control.
Bioluminescent V. harveyi BB120 strain (wild-ype) was cultivated in AB media overnight (15-16 h) at 30° C. (OD600 is about 2.0-2.5). The overnight cultivated strain […] was diluted to 10 mL by AB media (OD600<0.1). 100 μL the diluted BB120 strain was distributed to each well of 96-well white plate. The solution of each tested compound in DMSO (0.5 μL) at different concentration was added to BB120 cultures on plate. Triplicate was conducted for each compound and each concentration. After addition, bacterial cultures were incubated at 30° C. for 7 hours. Then the emitted luminescence and OD600 was measured by BioTek Synergy H1 plate reader. AI-1 and DMSO were used as positive control and negative control, respectively.

[7] = tested on: PARP; assay: Western blot of PARP cleavage in MDA-MB-231 cells with TRAIL; assay type: cell-based; conditions: MDA-MB-231, TRAIL 20 ng/mL, compound 50 μM (FIG. 20E)
[8] = tested on: cancer cells; conditions: cited from earlier work
[9] = target: T1, LasR; conditions: cited from earlier work

Compound | synergistic effect with TRAIL / sensitization (Bliss independence) [1] | QS activation (pyocyanin production normalized for cell number) ([5]; 100 μM) [fold] | QS activation (bioluminescence, ΔLUM normalized by OD600) [6] | cytotoxicity compared to doscadenamide A (1a) [1] | also measured
C#CCCCC[C@@H](C)C(=O)NCCCC[C@H]1C(OC)=CC(=O)N1C(=O)[C@H](C)CCCCC#C [Compound 1a, (R)-N-(4-((S)-3-methoxy-1-((R)-2-methyloct-7-ynoyl)-5-oxo-2,5-dihydro-1H-pyrrol-2-yl)butyl)-2-methyloct-7-ynamide] | can effectively improve TRAIL-induced apoptosis | 3 | activating across the concentration range tested |  | cell viability after pretreatment and TRAIL co-treatment [1]: clear decrease in cell viability; activation of related reporter pTIM5319 [2]: abolished; production of QS pigment pyocyanin / QS modulation [3]: elevated; activation of 3-oxo-C12-HSL-responsive reporter plasmid pSB1075 (QS activation) [4]: can activate; also recorded: activates QS; PARP cleavage (Western blot) [7]: evident presence of cleaved PARP
C=CCCCC[C@@H](C)C(=O)NCCCC[C@H]1C(OC)=CC(=O)N1C(=O)[C@H](C)CCCCC=C [Compound 1f, Doscadenamide F] |  |  |  | improved cytoxicity | QS activating activity at <100 μM [6]: reduced
C#CCCCCCC(=O)NCCCC[C@H]1C(OC)=CC(=O)N1C(=O)[C@H](C)CCCCC#C [Compound 1j, Doscadenamide J] |  |  |  |  | QS activating activity at <100 μM [6]: reduced
CCCCCC[C@@H](C)C(=O)NCCCC[C@H]1C(OC)=CC(=O)N1C(=O)[C@H](C)CCCCCC [Compound 1k, Doscadenamide S4] | best agents to sensitize MDA-MB-231 cells |  |  | improved cytoxicity | 
C#CCCCC[C@@H](C)C(=O)NCCCC[C@@H]1NC(=O)C=C1OC [Compound 2a, Doscadenamide S8] | synergistic effect with TRAIL, except 2a |  | consistently inhibited QS signaling |  | cell viability after pretreatment and TRAIL co-treatment [1]: no effect on cell viability; QS activation (pyocyanin production) without normalization for bacterial cell count [5]: did not show any level of activation; QS-activating effect (pyocyanin production normalized for cell number), in words ([5]; 100 μM): minimal QS-activating effect; also recorded: essentially inactive; PARP cleavage (Western blot) [7]: no effect
C#CCCCC[C@@H](C)C(=O)N1C(=O)C=C(OC)[C@@H]1CCCCNC(=O)OC(C)(C)C [Compound 3a, Doscadenamide S10] |  | 3 | activating across the concentration range tested |  | 
C=CCCCC[C@@H](C)C(=O)N1C(=O)C=C(OC)[C@@H]1CCCCNC(=O)OC(C)(C)C [Compound 3b, Doscadenamide S11] |  | 4 |  | improved cytoxicity | 
CCCCCC[C@@H](C)C(=O)N1C(=O)C=C(OC)[C@@H]1CCCCNC(=O)OC(C)(C)C [Compound 3c, Doscadenamide S12] | best agents to sensitize MDA-MB-231 cells | 5 | only had a minor activating trend | improved cytoxicity | cell viability after pretreatment and TRAIL co-treatment [1]: enhanced activity
CCCCCCCCCC(=O)CC(=O)N[C@H]1CCOC1=O [Compound C12, reference compound] |  | ~3 |  |  | synergistic effect on TRAIL-induced apoptosis reported in the literature [8]: synergistic effect on TRAIL-induced apoptosis
CCCCCCC[C@@H]1C[C@H]1CCC(=O)O [lyngbyoic acid] |  |  |  |  | LasR / quorum sensing modulation reported in the literature [9]: strongly inhibit the activity of LasR
C=C(CCCCC)CCCC(=O)O [pitinoic acid A] |  |  |  |  | LasR / quorum sensing modulation reported in the literature [9]: P. aeruginosa quorum sensing inhibitor
TRAIL: tumor necrosis factor-related apoptosis-inducing ligand, a TNF family cytokine |  |  |  |  | fraction of cells undergoing apoptotic death ([1]; MDA-MB-231, TRAIL alone 20 ng/mL): approximately 20%; cell viability remaining ([1]; MDA-MB-231, TRAIL alone 500 ng/mL): 50%
